Measured values published in paper PMC11620503 (Antimicrobial Agents and Chemotherapy, 2024).
≈ marks a conversion by molar mass, not a printed value. Read-outs that look alike come from different tables or passages of the source.

What was measured:
[1] = tested on: A. baumannii CDC-303 (OXA-23, 66); assay: Lethal mouse model of systemic infection; settings: Acinetobacter baumannii, in Mus musculus, sc, read-out: ED50 of MEM, extrapolated from the probit analysis
[2] = tested on: A. baumannii CDC-35 (OXA-66 and OXA-72 producer); assay: Neutropenic murine thigh infection model; settings: MEM 50 mg/kg q3h sc for 24 h
[3] = tested on: E. coli ATCC BAA-2469 (NDM-1); assay: Lethal mouse model of systemic infection; settings: Escherichia coli, ATCCBAA2469, in Mus musculus, sc
[4] = tested on: E. coli ATCC BAA-2469 (NDM-1); assay: MIC, broth microdilution; format: cell-based, Escherichia coli
[5] = tested on: P. aeruginosa CDC-90 (KPC-5); assay: MIC, broth microdilution; format: cell-based; settings: Pseudomonas aeruginosa, agent alone
[6] = tested on: P. aeruginosa CDC-90 (KPC-5); assay: Lethal mouse model of systemic infection; settings: Pseudomonas aeruginosa, in Mus musculus, sc, read-out: ED50 of MEM (95% confidence intervals)
[7] = tested on: Carbapenemase-producing P. aeruginosa (7); assay: MIC and MBC testing; format: cell-based, Pseudomonas aeruginosa; settings: 7 carbapenemase-producing P. aeruginosa; fixed BLI concentration (μg/mL) in label
[8] = tested on: Klebsiella pneumoniae ATCC BAA-2344 (KPC-2); assay: Lethal mouse model of systemic infection; settings: ATCCBAA2344, in Mus musculus
[9] = tested on: Klebsiella pneumoniae ATCC BAA-2344 (KPC-2); assay: MIC, broth microdilution; format: cell-based; settings: K. pneumoniae ATCC BAA-2344, agent alone
[10] = tested on: Clostridioides difficile ATCC 700057; assay: MIC, agar dilution, reference strains of anaerobic bacteria; format: cell-based; settings: ATCC700057
SHV-12 = SHV-12 (Klebsiella pneumoniae, UniProt P0A3M1, L31Q); assay: Ki app determination (Waley's method)
[11] = target: class D carbapenemases, OXAs from Acinetobacter spp., and OXA-48; assay: Ki app determination, range over enzymes; settings: read-out: Ki app, range; range over OXAs from Acinetobacter spp. and OXA-48
Parvimonas micra KUB3000 = assay: MIC, agar dilution, reference strains of anaerobic bacteria; format: cell-based
IMP-6 = IMP-6 (Serratia marcescens, UniProt P52699, S214G); assay: Ki app determination (Waley's method)
CTX-M-14 = CTX-M-14 (Escherichia coli, UniProt Q9L5C7); assay: Ki app determination (Waley's method)
[12] = tested on: Clostridium perfringens ATCC 13124; assay: microbe, parasite or virus in culture; format: cell-based; settings: ATCC13124
[13] = tested on: Clostridioides difficile ATCC BAA-1870; assay: MIC, agar dilution, reference strains of anaerobic bacteria; format: cell-based; settings: ATCCBAA1870
Atopobium rimae KUB3014 = assay: as above; format: cell-based; settings: Lancefieldella rimae
CTX-Ms and PDC-11 = assay: Ki app determination, range over enzymes; settings: read-out: Ki app values, range; range over CTX-Ms and PDC-11
[14] = Intrinsic antibacterial activity, MIC; format: cell-based
NDM-1 = NDM-1 (Klebsiella pneumoniae, UniProt C7C422); assay: Ki app determination (Waley's method)
KPC-3 = KPC-3 (Klebsiella pneumoniae, UniProt Q9F663, H272Y); assay: Ki app determination (Waley's method)
NDM-7 = NDM-7 (Klebsiella pneumoniae, UniProt C7C422, D130N/M154L); assay: Ki app determination (Waley's method)
OXA-72 = OXA-72 (Acinetobacter baumannii, UniProt Q5XQU0); assay: Ki app determination (Waley's method)
CTX-M-27 = CTX-M-27 (Escherichia coli, UniProt Q840M4); assay: Ki app determination (Waley's method)
[15] = Free concentration of KSP-1007 at the dose effective in the infection models; format: in vivo, mouse; settings: 30 mg/kg of KSP-1007; data not shown
[16] = tested on: Actinomyces odontolyticus ATCC 17929; assay: MIC, agar dilution, reference strains of anaerobic bacteria; format: cell-based; settings: Schaalia odontolytica, ATCC17929
[17] = tested on: Bacteroides fragilis KUB2982; assay: as above; format: cell-based
NDM-4 = NDM-4 (Klebsiella pneumoniae, UniProt C7C422, M154L); assay: Ki app determination (Waley's method)
[18] = tested on: Bacteroides fragilis KUB2983; assay: MIC, agar dilution, reference strains of anaerobic bacteria; format: cell-based
[19] = tested on: Fusobacterium nucleatum ATCC 25586; assay: as above; format: cell-based; settings: ATCC25586
[20] = tested on: Bulleidia extructa KUB3013; assay: as above; format: cell-based
[21] = tested on: Peptostreptococcus anaerobius ATCC 27337; assay: as above; format: cell-based; settings: ATCC27337

## C[C@@H](O)[C@H]1C(=O)N2C(C(=O)O)=C(S[C@@H]3CN[C@H](C(=O)N(C)C)C3)[C@H](C)[C@H]12 [MEM, meropenem]
[1]
  ED50: 6550 mg/kg
[2]
  bacterial growth in the thigh compared with the control group: no significant reduction in bacterial growth
[3]; read-out: ED50 of MEM (95% confidence intervals), E. coli ATCC BAA-2469, Experiment 1, single sc dose, survival day 7, dose ratio in label
  ED50: 103 mg/kg
[3]; read-out: ED50 of MEM (95% confidence intervals), E. coli ATCC BAA-2469, Experiment 2, single sc dose, survival day 7, dose ratio in label
  ED50: 118 mg/kg
[4]; Escherichia coli, ATCCBAA2469, Experiment 1, agent alone, read-out: MIC
  MIC: 32 µg/mL (≈ 83.4 µM)
[4]; Experiment 2, agent alone
  MIC: 32 µg/mL (≈ 83.4 µM)
[5]
  MIC: 32 µg/mL (≈ 83.4 µM)
[6]
  ED50: 54.8 mg/kg
[7]
  MBC range: 64 to 256 µg/mL
  MIC Range: 64 to 256 µg/mL
[8]; read-out: ED50 of MEM (95% confidence intervals), K. pneumoniae ATCC BAA-2344, Experiment 1, single sc dose 2 h after ip inoculation, survival day 7, dose ratio in label
  ED50: 205 mg/kg
[8]; read-out: ED50 of MEM (95% confidence intervals), K. pneumoniae ATCC BAA-2344, Experiment 2, single sc dose 2 h after ip inoculation, survival day 7, dose ratio in label
  ED50: 54.8 mg/kg
[9]; Experiment 1
  MIC: 16 to 32 µg/mL
[9]; Klebsiella pneumoniae, ATCCBAA2344, Experiment 2, read-out: MIC
  MIC: 16 to 32 µg/mL (≈ 41.7 to 83.4 µM)

## N[C@@H](C(=O)N1CC(Oc2ccc3c(c2C(=O)O)OB(O)CC3)C1)c1c[nH]cn1 [KSP-1007, 7-({1-[(2R)-2-amino-2-(1H-imidazol-4-yl)acetyl]azetidin-3-yl}oxy)-2-hydroxy-3,4-dihydro-2H-1,2-benzoxaborinine-8-carboxylic acid]
[10]
  MIC: > 256 µg/mL
SHV-12
  Ki: 53.5 ± 12.2 nM
[11]
  Ki: 0.621 to 5.78 nM
Parvimonas micra KUB3000
  MIC: 64 µg/mL (≈ 166 µM)
IMP-6
  Ki: 19900 nM
CTX-M-14
  Ki: 0.153 ± 0.0235 nM
[12]
  MIC: 2 µg/mL (≈ 5.18 µM)
[13]
  MIC: > 256 µg/mL
Atopobium rimae KUB3014
  MIC: 8 µg/mL (≈ 20.7 µM)
CTX-Ms and PDC-11
  Ki: 0.0664 to 0.79 nM
[14]
  MIC: ≥ 64 µg/mL
NDM-1
  Ki: 126 ± 58.1 nM
KPC-3
  Ki: 2.19 ± 0.687 nM
NDM-7
  Ki: 53 ± 30.2 nM
OXA-72
  Ki: 0.621 ± 0.0248 nM
CTX-M-27
  Ki: 0.159 ± 0.0228 nM
[15]
  free concentration: exceeded 8 µg/mL
[16]
  MIC: 256 µg/mL (≈ 663 µM)
[17]
  MIC: 16 µg/mL (≈ 41.4 µM)
NDM-4
  Ki: 153 ± 45.2 nM
[18]
  MIC: 16 µg/mL (≈ 41.4 µM)
[19]
  MIC: 32 µg/mL (≈ 82.9 µM)
[20]
  MIC: 32 µg/mL (≈ 82.9 µM)
[21]
  MIC: > 256 µg/mL
